Consider 17 molecules from patent US12240844B2 (Voronoi, Inc., priority 2019, dated 2025).

For one experiment, the system named is human DYRK1A and Tau. As to the kind of experiment: Tau phosphorylation inhibition, ClariCELL Kinase Cell-Based Assay (Carnabio). In a few lines: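 HEK293 cells transiently expressing human DYRK1A and Tau were exposed to compound, then lysed. Released Tau was captured on plate and its phosphorylation quantified by ELISA with a phospho-Tau-specific antibody.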

For the next experiment, the system named is TNF-α. In words: TNF-α secretion inhibition in LPS-treated THP-1 cells (ELISA). Type of experiment: cell-based. To be noted: Homo sapiens, compound 0.5 μM, LPS 500 ng/ml, 24 hours, read-out: THP-1/TNF-a (% inhib). On the procedure:
In order to evaluate the cytokine secretion inhibitory efficacy of mononuclear cells, THP-1 cells (ATCC, #TIB-202) as a human-derived monocyte cell line were cultured in RPMI-1640 (Hyclone, SH30027.01) media in which 10% fetal bovine serum (Hyclone, SH30084.03), 1% penicillin streptomycin (Welgene, LS202-02) and 50 μM 2-Mercaptoethanol (Gibco, #21985023) were contained. In the test, 1.5-2×10^5 cells/250 μl per each well were dispensed in a 48-well plate (SPL, #30048) and incubated in an incubator at 37° C. and 5% CO2 for 16 hours, and then the compounds were diluted in DMSO so that the final concentration was 0.5 μM. It was treated with Lipopolysaccharides (LPS) (sigma, #L6529) […]. After treatment with the compound, the LPS was treated so that the final concentration was 500 ng/ml, and then the cell culture fluid was collected after culturing for 24 hours, and the degrees of the cytokines IL-6 (R&D system, #D6050) and TNF-α (R&D system, #DTA00D) contained in the culture fluid were collected using each ELISA kit. After performing the experiment according to the manufacturer's instructions, the absorbance at 450 nm was measured and analyzed using a microplate reader.

For `CCNc1cc(Nc2ccc(C(=O)N3CCC(N4CCOCC4)CC3)c3c2OCC3)nc2[nH]cc(C(F)(F)F)c12` [Example 90, (7-((4-(ethylamino)-3-(trifluoromethyl)-1H-pyrrolo[2,3-b]pyridin-6-yl)amino)-2,3-dihydrobenzofuran-4-yl)(4-morpholinopiperidin-1-yl)methanone], in the experiment with human DYRK1A and Tau, the inhibition at 0.25 µM amounted to 23.3%, the inhibition at 0.5 µM was found to be 51.7% and the inhibition at 1 µM worked out at 70.3%. For the same molecule, in the experiment on TNF-α, the inhibition at 0.5 µM worked out at 12.4%.

Consider `O=C(c1ccc(Nc2cc(NC3CC3)c3c(C(F)(F)F)c[nH]c3n2)c2c1CCO2)N1CCC(N2CCOCC2)CC1` [Example 92, (7-((4-(cyclopropylamino)-3-(trifluoromethyl)-1H-pyrrolo[2,3-b]pyridin-6-yl)amino)-2,3-dihydrobenzofuran-4-yl)(4-morpholinopiperidin-1-yl)methanone], for which, in the experiment with human DYRK1A and Tau, the inhibition at 0.25 µM amounted to 27.5%, the inhibition at 0.5 µM worked out at 52.4% and the inhibition at 1 µM is 77.2%.

In the case of `O=C(c1ccc(Nc2cc(C3CC3)c3c(C(F)(F)F)c[nH]c3n2)c2c1CCO2)N1CCC(N2CCOCC2)CC1` [Example 93, (7-((4-cyclopropyl-3-(trifluoromethyl)-1H-pyrrolo[2,3-b]pyridin-6-yl)amino)-2,3-dihydrobenzofuran-4-yl)(4-morpholinopiperidin-1-yl)mthanone], in the experiment with human DYRK1A and Tau, the inhibition at 0.25 µM stood at 12%, the inhibition at 0.5 µM came to 28.8% and the inhibition at 1 µM is 50.1%.

Consider `CCNc1cc(Nc2ccc(P3(=O)CCN(C4CCOCC4)CC3)cc2OC)nc2[nH]cc(C(F)(F)F)c12` [Example 94, 4-(4-((4-(ethylamino)-3-(trifluoromethyl)-1H-pyrrolo[2,3-b]pyridin-6-yl)amino)-3-methoxyphenyl)-1-(tetrahydro-2H-pyran-4-yl)-1,4-azaphosphinane 4-oxide], for which, in the experiment on human DYRK1A and Tau, the inhibition at 0.25 µM came out at 22.2%, the inhibition at 0.5 µM amounted to 30.5% and the inhibition at 1 µM turned out to be 53.2%. Also, in the experiment with TNF-α, the inhibition at 0.5 µM worked out at 6.6%.

For `CCNc1cc(Nc2ccc(S(=O)(=O)N3CCC(N4CCOCC4)CC3)c3c2OCCO3)nc2[nH]cc(C(F)(F)F)c12` [Example 96, N^4-ethyl-N^6-(8-((4-morpholonopiperidin-1-yl)sulfonyl)-2,3-dihydrobenzo [b] [1,4]dioxin-5-yl)-3-(trifluoromethyl)-1H-pyrrolo[2,3-b]pyridine-4,6-diamine], in the experiment with human DYRK1A and Tau, the inhibition at 0.25 µM is 11%, the inhibition at 0.5 µM worked out at 19.6% and the inhibition at 1 µM came to 52.8%.

Turning to `COCCNc1cc(Nc2ccc(S(=O)(=O)N3CCC(N4CCOCC4)CC3)c3c2OCCO3)nc2[nH]cc(C(F)(F)F)c12` [Example 97, N^4-(2-methoxyethyl)-N^6-(8-((4-morpholonopiperidin-1-yl)sulfonyl)-2,3-dihydrobenzo[b] [1,4]dioxin-5-yl)-3-(trifluoromethyl)-1H-pyrrolo[2,3-b]pyridine-4,6-diamine], in the experiment on human DYRK1A and Tau, the inhibition at 0.25 µM came to 22.3%, the inhibition at 0.5 µM was determined as 42% and the inhibition at 1 µM came to 67.2%. In the experiment on TNF-α, the inhibition at 0.5 µM turned out to be 5.5%.

`CCNc1cc(Nc2ccc(C(=O)N3CCC(N4C[C@@H]5C[C@H]4CO5)CC3)c3c2OCC3)nc2[nH]cc(C(F)(F)F)c12` [Example 105, (4-((1S,4S)-2-oxa-5-azabicyclo[2.2.1]heptan-5-yl)piperidin-1-yl)(7-((4-(ethylamino)-3-(trifluoromethyl)-1H-pyrrolo[2,3-b]pyridin-6-yl)amino)-2,3-dihydrobenzofuran-4-yl)methanone]: in the experiment on human DYRK1A and Tau, the inhibition at 0.25 µM turned out to be 60.2%, the inhibition at 0.5 µM came to 74% and the inhibition at 1 µM is 92%. The inhibition at 0.5 µM in the experiment with TNF-α was 1.7%.

Consider `CCNc1cc(Nc2ccc(C(=O)N3CCN(C4COC4)CC3)c3c2OCCO3)nc2[nH]cc(C(F)(F)F)c12` [Example 173, (8-((4-(ethylamino)-3-(trifluoromethyl)-1H-pyrrolo[2,3-b]pyridin-6-yl)amino)-2,3-dihydrobenzo[b] [1,4]dioxin-5-yl)(4-(oxetan-3-yl)piperazin-1-yl)methanone], for which, in the experiment on human DYRK1A and Tau, the inhibition at 0.25 µM was 5.2%, the inhibition at 0.5 µM came out at 28.2% and the inhibition at 1 µM was 46.4%. Moreover, the inhibition at 0.5 µM in the experiment with TNF-α is 5.9%.

As for `COc1cc(S(=O)(=O)N2CCC(N3CCOCC3)CC2)ccc1Nc1cc(NCCS(C)(=O)=O)c2c(C(F)(F)F)c[nH]c2n1` [Example 194, N^6-(2-methoxy-4-((4-morpholinopiperidin-1-yl)sulfonyl)phenyl)-N^4-(2-(methylsulfonyl)ethyl)-3-(trifluoromethyl)-1H-pyrrolo[2,3-b]pyridine-4,6-diamine], in the experiment on TNF-α, the inhibition at 0.5 µM amounted to 37.6%.

Regarding `CNc1cc(Nc2ccc(C(=O)N3CC[C@@H](N4CCOCC4)C3)c3c2OCC3)nc2[nH]cc(C(F)(F)F)c12` [Example 214, (R)-(7-((4-(methylamino)-3-(trifluoromethyl)-1H-pyrrolo[2,3-b]pyridin-6-yl)amino)-2,3-dihydrobenzofuran-4-yl)(3-morpholinopyrrolidin-1-yl)methanone], in the experiment with human DYRK1A and Tau, the inhibition at 0.25 µM was 33.9%, the inhibition at 0.5 µM is 60.1% and the inhibition at 1 µM was found to be 76.8%. Besides, in the experiment with TNF-α, the inhibition at 0.5 µM was 12%.

On to `CNc1cc(Nc2ccc(C(=O)N3CC[C@H](N4CCOCC4)C3)c3c2OCC3)nc2[nH]cc(C(F)(F)F)c12` [Example 217, (S)-(7-((4-(methylamino)-3-(trifluoromethyl)-1H-pyrrolo[2,3-b]pyridin-6-yl)amino)-2,3-dihydrobenzofuran-4-yl)(3-morpholinopyrrolidin-1-yl)methanone], for which, in the experiment on human DYRK1A and Tau, the inhibition at 0.25 µM turned out to be 50.2%, the inhibition at 0.5 µM was determined as 60.6% and the inhibition at 1 µM stood at 84.5%.

For the molecule `O=C(c1ccc(Nc2cc(C3CC3)c3c(C(F)(F)F)c[nH]c3n2)c2c1OCCO2)N1CCC(N2CCOCC2)CC1` [Example 221, (8-((4-cyclopropyl-3-(trifluoromethyl)-1H-pyrrolo[2,3-b]pyridin-6-yl)amino)-2,3-dihydrobenzo [b] [1,4]dioxin-5-yl)(4-morpholinopiperidin-1-yl)methanone], in the experiment on human DYRK1A and Tau, the inhibition at 0.25 µM was 6.2%, the inhibition at 0.5 µM is 24.7% and the inhibition at 1 µM was found to be 23%.

As for `CNc1cc(Nc2ccc(S(=O)(=O)N3CCC(N4CCOCC4)CC3)c3c2OCCO3)nc2[nH]cc(C(F)(F)F)c12` [Example 233, N^4-methyl-N^6-(8-((4-morpholinopiperidin-1-yl)sulfonyl)-2,3-dihydrobenzo [b] [1,4]dioxin-5-yl)-3-(trifluoromethyl)-1H-pyrrolo[2,3-b]pyridine-4,6-diamine], in the experiment on human DYRK1A and Tau, the inhibition at 0.25 µM was determined as 17.7%, the inhibition at 0.5 µM amounted to 34.6% and the inhibition at 1 µM stood at 70.3%. The inhibition at 0.5 µM in the experiment with TNF-α is 12.5%.

`CNc1cc(Nc2ccc(C(=O)N3CCC(N4CCOCC4)CC3)c3c2OCC3)nc2[nH]cc(C(F)(F)F)c12` [Example 234, (7-((4-(methylamino)-3-(trifluoromethyl)-1H-pyrrolo[2,3-b]pyridin-6-yl)amino)-2,3-dihydrobenzofuran-4-yl)(4-morpholinopiperidin-1-yl)methanone]: in the experiment on human DYRK1A and Tau, the inhibition at 0.25 µM was found to be 41.8%, the inhibition at 0.5 µM is 65.3% and the inhibition at 1 µM stood at 81.5%. For the same molecule, the inhibition at 0.5 µM in the experiment with TNF-α is 12.4%.

As to `CNc1cc(Nc2ccc(S(=O)(=O)N3CCC(N4C[C@H]5C[C@@H]4CO5)CC3)cc2OC)nc2[nH]cc(C(F)(F)F)c12` [Example 243, N^6-(4-((4-((1R,4R)-2-oxa-5-azabicyclo[2.2.1]heptan-5-yl)piperidin-1-yl)sulfonyl)-2-methoxyphenyl)-N^4-methyl-3-(trifluoromethyl)-1H-pyrrolo[2,3-b]pyridine-4,6-diamine], in the experiment on human DYRK1A and Tau, the inhibition at 0.25 µM came out at 64.4%, the inhibition at 0.5 µM was determined as 85% and the inhibition at 1 µM was determined as 104%. Moreover, the inhibition at 0.5 µM in the experiment with TNF-α worked out at 2.1%.

For the molecule `CCNc1cc(Nc2ccc(C(=O)N3CCC(N4C[C@H]5C[C@@H]4CO5)CC3)c3c2OCC3)nc2[nH]cc(C(F)(F)F)c12` [Example 244, (4-((1R,4R)-2-oxa-5-azabicyclo[2.2.1]heptan-5-yl)piperidin-1-yl)(7-((4-(ethylamino)-3-(trifluoromethyl)-1H-pyrrolo[2,3-b]pyridin-6-yl)amino)-2,3-dihydrobenzofuran-4-yl)methanone], in the experiment with human DYRK1A and Tau, the inhibition at 0.25 µM worked out at 58%, the inhibition at 0.5 µM was 86% and the inhibition at 1 µM was 107%. The inhibition at 0.5 µM with TNF-α came to 12.7%.

As for `CCNc1cc(Nc2ccc(C(=O)N3CCN(C4COC4)CC3)c3c2OCC3)nc2[nH]cc(C(F)(F)F)c12` [Example 248, (7-((4-(ethylamino)-3-(trifluoromethyl)-1H-pyrrolo[2,3-b]pyridin-6-yl)amino)-2,3-dihydrobenzofuran-4-yl)(4-(oxetan-3-yl)piperazin-1-yl)methanone], in the experiment with human DYRK1A and Tau, the inhibition at 0.25 µM was 53.5%, the inhibition at 0.5 µM was 76% and the inhibition at 1 µM is 95.1%. Further, in the experiment with TNF-α, the inhibition at 0.5 µM is 9.2%.
